Test results reported in ChEMBL document CHEMBL1144653, “The thioesterase domain from the pimaricin and erythromycin biosynthetic pathways can catalyze hydrolysis of simple thioester substrates” (Bioorg Med Chem Lett, 2007).

Columns and labels:
Streptomyces natalensis = test: Ratio of Kcat to Km in pimaricin thioesterase expressed in Escherichia coli
[1] = test system: Saccharopolyspora erythraea; test: Ratio of Kcat to Km in 6-deoxyerythronolide B polyketide synthase thioesterase expressed in Escherichia coli

Structure (SMILES) | kcat/Km (Streptomyces natalensis) [M⁻¹ s⁻¹] | kcat/Km [1] [M⁻¹ s⁻¹]
CC/C=C(\C)C(=O)SCCNC(C)=O | 1.3 | 
CCCC(C)C(=O)SCCNC(C)=O (stereo not drawn) | 0.24 | 0.17

The next lines start with the values.

kcat/Km (Streptomyces natalensis) [M⁻¹ s⁻¹] | kcat/Km [1] [M⁻¹ s⁻¹] | Structure (SMILES)
0.02 | 3.6 | CC[C@H](O)[C@@H](C)C(=O)SCCNC(C)=O
 | 4.2 | CCC(=O)C(C)C(=O)SCCNC(C)=O (stereo not drawn)
0.04 | 0.47 | CC[C@@H](O)[C@H](C)C(=O)SCCNC(C)=O
